This passage reports IC50 results from publication PMC7873226, “Molecular mechanism and structural basis of small-molecule modulation of the gating of acid-sensing ion channel 1” (Communications Biology, 2021).

One test concerns the target T1, rASIC1a F98A (Rattus norvegicus, UniProt P55926, F98A).
T1 construct: expressed in transfected cells; host or cells: CHO cells, transient transfection (GFP cDNA co-transfected separately)
T1 sequence (P55926 1-526 F98A): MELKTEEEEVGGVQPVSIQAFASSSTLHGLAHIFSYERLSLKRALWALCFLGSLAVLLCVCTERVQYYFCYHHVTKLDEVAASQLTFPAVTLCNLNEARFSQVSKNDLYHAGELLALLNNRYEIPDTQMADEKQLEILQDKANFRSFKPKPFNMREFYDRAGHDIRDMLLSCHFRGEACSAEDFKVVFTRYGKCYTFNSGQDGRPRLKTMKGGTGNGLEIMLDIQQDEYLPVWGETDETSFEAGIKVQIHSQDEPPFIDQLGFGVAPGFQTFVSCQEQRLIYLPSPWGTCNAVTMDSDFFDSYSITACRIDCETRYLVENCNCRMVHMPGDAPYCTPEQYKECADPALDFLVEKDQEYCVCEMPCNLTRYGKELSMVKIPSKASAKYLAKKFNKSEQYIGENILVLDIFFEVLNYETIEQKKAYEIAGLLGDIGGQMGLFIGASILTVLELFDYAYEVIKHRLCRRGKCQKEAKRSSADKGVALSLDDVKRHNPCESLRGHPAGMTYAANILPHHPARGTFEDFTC
The test can be described thus: Inhibition of pH 6.0-induced current of mutant channel F98A. The class given is cell-based. As for the experimental part:
(§1) Chinese Hamster Ovary (CHO) cells stably expressing rat ASIC1a were cultured in Ham’s F12, supplemented with 10% FBS, 1% penicillin–streptomycin and 500 µg/mL G418 and incubated at 37 °C with 5% CO2. Transient transfections of rASIC1a and cASIC1 wild-type or mutant channels in CHO cells were performed with Lipofectamine 3000 (Thermo Fisher Scientific) according to the manufacturer’s recommendations. The green fluorescent protein (GFP) cDNA (at 1/10 the amount of channel cDNA) was co-transfected with channel cDNA to aid the identification of transfected cells under the microscope in patch clamp experiments. All cDNAs were sequence verified.
(§2) Cells were freshly dissociated with CellStripper (Corning) and dispersed in a chamber on the stage of an inverted microscope. […]
(§3) All recordings were performed at room temperature using an Axopatch 200B amplifier and pClamp 11 software (Molecular Devices). Currents were measured by whole-cell patch clamp, digitized at 10 kHz and lowpass filtered at 2 kHz. […] Responses were elicited by rapid perfusion of acidic solutions using the SF-77B Fast-Step Perfusion device (Warner Instruments) for 40 ms once every 30 s (unless indicated otherwise) and recorded till steady state was reached. […]

A further test concerns the target T2, rASIC1a Y340A (Rattus norvegicus, UniProt P55926, Y340A).
T2 construct: expressed in transfected cells; host or cells: CHO cells, transient transfection (GFP cDNA co-transfected separately)
T2 sequence (P55926 1-526 Y340A): T1 sequence (P55926 1-526 F98A) with A98F, Y340A
The test is described as follows: Inhibition of pH 6.0-induced current of mutant channel Y340A. The class given is cell-based. The method, then: as §1, §2, §3

Residue numbers refer to the chain shown, from its start.

What is called IC50 is the concentration needed to halve the response being measured. A high value points to weaker potency in that assay. Turning to `Cc1cc(N2CC(Oc3cc(F)c4c(N)n[nH]c4c3)C2)c(F)cn1` [JNJ-67869386], the IC50 on rASIC1a F98A was determined as 626 ± 11 nM; at rASIC1a Y340A, 572 ± 177 nM.
Regarding `COc1ccc(Oc2ccc(-c3nc4cc(C(=N)N)ccc4[nH]3)cc2)cc1OC` [JNJ-799760], the IC50 came to 726 ± 356 nM against rASIC1a F98A and 260 ± 89.8 nM at rASIC1a Y340A.
